Data: patent publication US12285434B2, “Therapeutic, preventive, or improvement agent for inflammatory disease and allergic disease” (The University of Tokyo, priority 2018, dated 2025)

Legend:
[1] = system: NO production in HUVECs; experiment: Histamine-induced NO production (nitrite and nitrate); assay type: cell-based, human; conditions: histamine 10 μM, no pretreatment
Description: (§1) In Examples 4 to 6, human umbilical vein endothelial cells (hereinafter, sometimes referred to as “HUVECs”, manufactured by Lonza) were cultured in EGM-2 (manufactured by Lonza K.K.). These cells (passages 4 to 9) were used for experiments after 4-hour starvation in EBM-2 (manufactured by Lonza K.K.) containing 2% FBS.
The HUVECs were washed three times with HEPES and incubated in HEPES supplemented with 1 mM L-arginine and 10 μM tetrahydrobiopterin. After equilibration for 30 minutes, the medium was exchanged, and the cells were incubated for additional 30 minutes. […] The conditioned media before and after the stimulation (100 μL each) were collected and centrifuged in each amount of 300 g for 3 minutes. The supernatants were collected, and used to measure nitrite and nitrate, as stable metabolites of NO, by an ENO-20 NOx analyzer (manufactured by Eicom Corporation). The degrees of increases of nitrite and nitrate levels after the stimulation were normalized with cellular protein contents.

[2] = system: HUVECs; experiment: Endothelial barrier function: transendothelial electrical resistance (TER); assay type: cell-based, human; conditions: histamine 10 μM, no pretreatment
Description: as §1
The in vitro endothelial barrier function was evaluated by measuring the transendothelial electrical resistance (hereinafter, sometimes referred to as “TER”) of the HUVECs prepared in the above item (1) over time. Specifically, the transendothelial electrical resistance was measured using an xCELLigence Real-Time Cell Analyzer DP system (manufactured by Roche). The system monitors changes in TER across an interdigitated microelectrode at the bottom of tissue culture E-plates (manufactured by Roche). The HUVECs (8,000 cells) were plated on the E-plates and incubated until confluent. Then, the following operation (a) or (b) was performed.
(a) Each reagent was added to plates on which the HUVECs were cultured, so as to give a vehicle, 1 U/mL thrombin, 1 μM forskolin, or 0.1 μM or 0.3 μM 5,6-DiHETE (FIGS. 4A and 4B).
(b) A vehicle or […] was added to plates on which the HUVECs were cultured, so as to attain 10 μM. […] Thirty (30) minutes after the addition, 10 μM histamine was added to each plate 30 minutes after the addition (FIGS. 4C and 4D).
In the above operations (a) and (b), the TER was measured every 60 seconds. For normalization, the cell index value at each time point is shown as a ratio relative to the initial value. The maximum normalized cell index after stimulation was quantified and represented as maximal response. Note that it is known that the disruption of the endothelial barrier function lowers the TER, but that the enhancement of the endothelial barrier function increases the TER.

[3] = system: ear vessels of the mice; experiment: In vivo microscopy of ear vessels: FITC-dextran leakage and vascular diameter after histamine; parameters: species or system mouse; conditions: histamine 400 μg by instillation, no pretreatment
Description: To visualize the ear vessels of the mice, 70 kDa fluorescein isothiocyanate-dextran (10 mg/kg, manufactured by Sigma-Aldrich) was injected intravenously. Then, immediately after the administration of fluorescein isothiocyanate-dextran, 5,6-DiHETE (0.1 μg) was administered by instillation (percutaneously administered) as a pretreatment, and this group of mice was designated as a “5,6-DiHETE-administered group.” As a control group, a group of mice not administered with 5,6-DiHETE was designated as a “[…]-administered group”. Then, 15 minutes after the administration by instillation, histamine (400 μg) was administered by instillation (percutaneously administered) into the ventral surface of the ears for both the groups. Next, the mice were placed on the stage of a microscope confocal microscope (ECLIPSE Ti with C1 confocal system, manufactured by Nikon Corporation), and their body temperatures were maintained at 37° C. Dextran leakage and vascular diameter in the ears were monitored every minute in a period from 0 to 30 minutes after the administration of histamine using EZ-C1 Free Viewer (manufactured by Nikon Corporation), and the dextran leakage, artery diameter and vein diameter were quantified according to the description of Omori, K. et al., British Journal of Pharmacology, 171:4879-4889 (2014). It is known that smooth muscle contraction reduces the downstream blood flow and limits the vascular leakage, whereas smooth muscle relaxation (increase of vascular diameter) increases the blood flow, thereby leading to vascular leakage.

[4] = system: anaphylaxis model mice; experiment: Histamine-induced anaphylaxis: blood pressure and body temperature; assay type: in vivo, mouse (C57BL/6); conditions: 30 minutes after histamine 50 mg/kg intravenously, no pretreatment
Description: Histamine (50 mg/kg) lysed in a physiological saline solution was intravenously administered to C57BL/6 strain mice (male, 8 to 12 weeks old) to prepare anaphylaxis model mice (hereinafter, sometimes referred to as “anaphylaxis group”). […] L-NAME is an NO synthesis inhibitor. As indices of anaphylactic symptoms, a body temperature decrease and a blood pressure decrease were observed.

[5] = system: histamine-induced vascular permeability in mouse ears; experiment: Modified Miles assay: histamine-induced vascular hyperpermeability (Evans blue extravasation); assay type: in vivo, mouse (C57BL/6); conditions: 400 μg histamine, no pretreatment
Description: Fifteen (15) minutes after the intracutaneous injection, a vehicle (80% acetone) or histamine (400 μg, manufactured by Molecular Probes) was percutaneously administered to the ventral surface of the ears. To evaluate vascular permeability, Evans blue (50 mg/kg, manufactured by Sigma) was injected intravenously 5 minutes after the administration of histamine. The mice were then euthanized by cervical dislocation 30 minutes after the injection of Evans blue. The ears were dissected, dried at 55° C., and weighed. Extravasated Evans blue present in the ears was extracted in formamide (manufactured by Molecular Probes), and quantified spectrophotometrically (manufactured by PerkinElmer Japan Co., Ltd.) at a wavelength of 610 nm.

[6] = system: calcium ion concentration in HUVECs; experiment: Histamine-induced increase of calcium ion concentration (fura-2); assay type: cell-based, human; conditions: histamine 10 μM, no pretreatment
Description: These cells (passages 4 to 9) were used for experiments after 4-hour starvation in EBM-2 (manufactured by Lonza K.K.) containing 2% FBS.
HUVECs were incubated with a calcium fluorescence indicator (3 μg fura-2/AM containing 0.11% Cremophor EL) for 30 minutes and washed with an HEPES buffer three times. […] Then, 5 minutes after the addition of each reagent, histamine was added so as to attain 10 μM. In addition, a group to which histamine was added so as to attain 10 μM without pretreatment was also prepared. A cover slip was placed in a specialized airtight chamber mounted onto the stage of a microscope maintained at 37° C. The HUVECs were excited at 340 nm and 380 nm and the emitted fluorescence signal was measured every 3 seconds at 510 nm for 60 seconds. The fluorescence ratio (R:F340/F380) was determined using a fluorescence imaging system (AQUACOSMOS, manufactured by Hamamatsu Photonics K.K.). After the experiment, 1 μM ionomycin was added and the fluorescence changes were measured in the presence of 0 or 1.5 mM calcium ions. The calcium ion concentration was indicated as A fluorescence ratio. AUC was calculated 1 minute after each stimulus to evaluate the A fluorescence ratio. It is known that the increase of calcium ion concentration in endothelial cells promotes NO production by eNOS phosphorylation and […] smooth muscle cells (Garcia-Cardena, G. et al., Nature, 392: 821-824(1998); and Luo, Z. et al., The Journal of clinical investigation, 106: 493-499(2000)).

Compound: NCCc1c[nH]cn1 [histamine, reference compound]
- NO production [1]: 0.31±0.06 pmol/μg protein
- TER, minimum (normalized cell index) [2]: 0.82±0.05 fold
- artery diameter as compared with arteries nonstimulated with histamine [3]: 178±13%
- body temperature decrease [4]: −2.2±0.3 °C
- blue dye extravasation (Evans blue) in ear [5]: 0.14 ± 0.02 µg/mg
- calcium ion concentration, AUC at 1 minute after stimulation [6]: 12.2±2.1
